Reference: patent publication US7462600B2, “Macrolides” (Pfizer Inc, priority 2004, dated 2008)
Values after ≈ are worked out from the molar mass of the structure shown. Like-named read-outs stand apart in the source and are kept apart here.

How the values were obtained:
Assay type in all cases: cell-based
[1] = tested on: Streptococcus pneumoniae 1095; details: microtiter broth dilution
Procedure, shortened: (§1)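 Panel strains, including macrolide-resistant isolates and their susceptible parents where available, are exposed to serial compound dilutions in microtiter trays. Growth inhibition is scored as MIC under NCCLS M100-S14 standards.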

[2] = tested on: Streptococcus pneumoniae 1175; details: microtiter broth dilution
Procedure, shortened: as §1

[3] = tested on: Streptococcus pneumoniae 1016; assay: MIC, microtiter broth dilution (NCCLS M100-S14), S. pneumoniae 1016 (susceptible)
Procedure, shortened: as §1

[4] = tested on: Haemophilus influenzae 1218; assay: MIC, microtiter broth dilution (NCCLS M100-S14), H. influenzae 1218 (susceptible)
Procedure, shortened: as §1

[5] = tested on: Streptococcus pyogenes 1079; assay: MIC, microtiter broth dilution (NCCLS M100-S14), S. pyogenes 1079 (ermB)
Procedure, shortened: as §1

[6] = S. pneumoniae 1016 (susceptible)
[7] = H. influenzae 1218 (susceptible)

Row | SMILES | MIC S. pneumo. 1095 ([1]; Streptococcus pneumoniae 1095) | MIC S. pneumo. 1175 ([2]; Streptococcus pneumoniae 1175) | MIC S. pneumo. 1016 ([3]; Streptococcus pneumoniae 1016) | MIC H. influenzae 1218 ([4]; Haemophilus influenzae 1218) | MIC S. pyogenes 1079 ([5]; Streptococcus pyogenes 1079) | MIC S. pneumo. 1095 ([1]; S. pneumoniae 1095 (ermB)) | MIC S. pneumo. 1175 ([2]; S. pneumoniae 1175 (mefA)) | MIC S. pneumo. 1016 [3, 6] | MIC H. influenzae 1218 [4, 7] | MIC S. pyogenes 1079 ([5]; S. pyogenes 1079 (ermB))
1 | CCC1OC(=O)C(C)C(=O)C(C)C(OC2OC(C)CC(N(C)C)C2O)C(C)(OC)CC(C)C(=O)C(C)C2N(C3CN(C(=O)c4ccc(-c5noc(C)n5)cc4)C3)C(=O)OC12C (stereo not drawn) [Example 2.12] | 2 µg/mL (≈ 2.34 µM) | 0.25 µg/mL (≈ 0.293 µM) | <0.06 µg/mL | 32 µg/mL (≈ 37.5 µM) | >64.00 µg/mL |  |  |  |  | 
2 | CC[C@H]1OC(=O)[C@H](C)C(=O)[C@H](C)[C@@H](O[C@@H]2O[C@H](C)C[C@H](N(C)C)[C@H]2O)[C@](C)(OC)C[C@@H](C)C(=O)[C@H](C)[C@H]2N(CC3(C)CN(Cc4cccc5nccnc45)C3)C(=O)O[C@]12C [6.05] | <0.06 µg/mL | 0.12 µg/mL (≈ 0.143 µM) | <0.06 µg/mL | 1 µg/mL (≈ 1.19 µM) | >64.00 µg/mL |  |  |  |  | 
3 | CCC1OC(=O)C(C)C(=O)C(C)C(OC2OC(C)CC(N(C)C)C2O)C(C)(OC)CC(C)C(=O)C(C)C2N(C3CN(C(=O)c4ccc(-n5ccnc5)cc4)C3)C(=O)OC12C (stereo not drawn) [Example 2.14] | 2 µg/mL (≈ 2.39 µM) | 0.25 µg/mL (≈ 0.298 µM) | <0.06 µg/mL | 4 µg/mL (≈ 4.77 µM) | >64.00 µg/mL |  |  |  |  | 
4 | CCC1OC(=O)C(C)C(=O)C(C)C(OC2OC(C)CC(N(C)C)C2O)C(C)(OC)CC(C)C(=O)C(C)C2N(C3CN(Cc4c(Br)cnc5cccnc45)C3)C(=O)OC12C (stereo not drawn) [Example 1.106, 3-descladinosyl-11,12-dideoxy-6-O-methyl-3-oxo-12,11-(oxycarbonyl-(1-(3-bromo-1,5-naphthyridine-4-methyl)-azetidin-3-yl)-imino)-erythromycin A] | <0.063 µg/mL | <0.063 µg/mL | <0.063 µg/mL | 1 µg/mL (≈ 1.12 µM) | 0.25 µg/mL (≈ 0.281 µM) |  |  |  |  | 
5 | CCC1OC(=O)C(C)C(=O)C(C)C(OC2OC(C)CC(N(C)C)C2O)C(C)(OC)CC(C)C(=O)C(C)C2N(CC3CN(Cc4cnc5cnccn45)C3)C(=O)OC12C (stereo not drawn) [4.28] | 8 µg/mL (≈ 9.84 µM) | 1 µg/mL (≈ 1.23 µM) | <0.06 µg/mL | 0.25 µg/mL (≈ 0.308 µM) | >64.00 µg/mL |  |  |  |  | 
6 | CCC1OC(=O)C(C)C(=O)C(C)C(OC2OC(C)CC(N(C)C)C2O)C(C)(OC)CC(C)C(=O)C(C)C2N(CC3CN(S(=O)(=O)c4cccc(C#N)c4)C3)C(=O)OC12C (stereo not drawn) [4.07] | 24 µg/mL (≈ 28.3 µM) | 0.19 µg/mL (≈ 0.224 µM) | <0.06 µg/mL | 1 µg/mL (≈ 1.18 µM) | >64.00 µg/mL |  |  |  |  | 
7 | CCC1OC(=O)C(C)C(=O)C(C)C(OC2OC(C)CC(N(C)C)C2O)C(C)(OC)CC(C)C(=O)C(C)C2N(CC3CCN(Cc4cccc(OC)n4)CC3)C(=O)OC12C (stereo not drawn) [15.05] |  |  |  |  |  | >64.00 µg/mL | 0.5 µg/mL (≈ 0.602 µM) | <0.06 µg/mL | 8 µg/mL (≈ 9.63 µM) | >64.00 µg/mL
8 | CCC1OC(=O)C(C)C(=O)C(C)C(OC2OC(C)CC(N(C)C)C2O)C(C)(OC)CC(C)C(=O)C(C)C2N(CC3CCN(Cc4c[nH]c5cc(=O)[nH]cc45)C3)C(=O)OC12C (stereo not drawn) [13.02] |  |  |  |  |  | 16 µg/mL (≈ 19 µM) | 4 µg/mL (≈ 4.75 µM) | 0.12 µg/mL (≈ 0.143 µM) | 16 µg/mL (≈ 19 µM) | 64 µg/mL (≈ 76 µM)
9 | CCC1OC(=O)C(C)C(=O)C(C)C(OC2OC(C)CC(N(C)C)C2O)C(C)(OC)CC(C)C(=O)C(C)C2N(C3CN(C(=O)c4ccc(-n5cccn5)cc4)C3)C(=O)OC12C (stereo not drawn) [Example 2.13] | 2 µg/mL (≈ 2.39 µM) | 0.12 µg/mL (≈ 0.143 µM) | <0.06 µg/mL | 8 µg/mL (≈ 9.55 µM) | >64.00 µg/mL |  |  |  |  | 
10 | CCC1OC(=O)C(C)C(=O)C(C)C(OC2OC(C)CC(N(C)C)C2O)C(C)(OC)CC(C)C(=O)C(C)C2N(CC3CCN(Cc4nccc5ccccc45)C3)C(=O)OC12C (stereo not drawn) [11.10] |  |  |  |  |  | <0.06 µg/mL | <0.06 µg/mL | <0.06 µg/mL | 0.12 µg/mL (≈ 0.143 µM) | 64 µg/mL (≈ 76.5 µM)
11 | CCC1OC(=O)C(C)C(=O)C(C)C(OC2OC(C)CC(N(C)C)C2O)C(C)(OC)CC(C)C(=O)C(C)C2N(C3CN(S(=O)(=O)c4ccc5[nH]ncc5c4)C3)C(=O)OC12C (stereo not drawn) [Example 3.87, 3-descladinosyl-11,12-dideoxy-6-O-methyl-3-oxo-12,11-(oxycarbonyl-(1-(1H-indazole-5-sulfonyl)-azetidin-3-yl)-imino)-erythromycin A] | <0.06 µg/mL | <0.06 µg/mL | <0.06 µg/mL | 0.19 µg/mL (≈ 0.224 µM) | 0.19 µg/mL (≈ 0.224 µM) |  |  |  |  | 
12 | CCC1OC(=O)C(C)C(=O)C(C)C(OC2OC(C)CC(N(C)C)C2O)C(C)(OC)CC(C)C(=O)C(C)C2N(C3CN(S(=O)(=O)c4ccc5oc(=O)[nH]c5c4)C3)C(=O)OC12C (stereo not drawn) [Example 3.22, 3-descladinosyl-11,12-dideoxy-6-O-methyl-3-oxo-12,11-(oxycarbonyl-(1-(2,3-dihydro-2-oxobenzo[d]oxazole-5-sulfonyl)-azetidin-3-yl)-imino)-erythromycin A] | 4 µg/mL (≈ 4.62 µM) | 0.5 µg/mL (≈ 0.578 µM) | <0.06 µg/mL | 0.25 µg/mL (≈ 0.289 µM) | 1 µg/mL (≈ 1.16 µM) |  |  |  |  | 
13 | CC[C@H]1OC(=O)[C@H](C)C(=O)[C@H](C)[C@@H](O[C@@H]2O[C@H](C)C[C@H](N(C)C)[C@H]2O)[C@](C)(OC)C[C@@H](C)C(=O)[C@H](C)[C@H]2N(CC3(O)CN(Cc4c[nH]c(=O)[nH]c4=O)C3)C(=O)O[C@]12C [7.09] |  |  |  |  |  | 64 µg/mL (≈ 77.9 µM) | 16 µg/mL (≈ 19.5 µM) | 0.5 µg/mL (≈ 0.608 µM) | 16 µg/mL (≈ 19.5 µM) | >64.00 µg/mL
14 | CCC1OC(=O)C(C)C(=O)C(C)C(OC2OC(C)CC(N(C)C)C2O)C(C)(OC)CC(C)C(=O)C(C)C2N(CC3CCCN3C(=O)c3cnc4ccccc4c3)C(=O)OC12C (stereo not drawn) [12.05] |  |  |  |  |  | 1 µg/mL (≈ 1.18 µM) | 1 µg/mL (≈ 1.18 µM) | <0.06 µg/mL | 4 µg/mL (≈ 4.7 µM) | >64.00 µg/mL
15 | CCC1OC(=O)C(C)C(=O)C(C)C(OC2OC(C)CC(N(C)C)C2O)C(C)(OC)CC(C)C(=O)C(C)C2N(CC3CCN(Cc4ccnc5ccccc45)C3)C(=O)OC12C [Example 11.11, 3-descladinosyl-11,12-dideoxy-6-O-methyl-3-oxo-12,11-(oxycarbonyl-(1-((quinolin-4-yl)-methyl)-((S)-pyrrolidin-3-yl)-methyl)-imino)-erythromycin A] |  |  |  |  |  | 0.12 µg/mL (≈ 0.143 µM) | 0.12 µg/mL (≈ 0.143 µM) | <0.06 µg/mL | 1 µg/mL (≈ 1.19 µM) | 8 µg/mL (≈ 9.56 µM)
16 | CCC1OC(=O)C(C)C(=O)C(C)C(OC2OC(C)CC(N(C)C)C2O)C(C)(OC)CC(C)C(=O)C(C)C2N(C3CN(S(=O)(=O)c4ccc(-c5nc6ccc(C)cc6s5)cc4)C3)C(=O)OC12C (stereo not drawn) [Example 3.54, 3-descladinosyl-11,12-dideoxy-4-O-methyl-3-oxo-12,11-(oxycarbonyl-(1-(4-(6-methylbenzo[d]thiazol-2-yl)benzenesulfonyl)-azetidin-3-yl)imino)-erythromycin A] | 4 µg/mL (≈ 4.19 µM) | 4 µg/mL (≈ 4.19 µM) | <0.06 µg/mL | >64.00 µg/mL | 8 µg/mL (≈ 8.38 µM) |  |  |  |  | 
17 | CC[C@H]1OC(=O)[C@H](C)[C@@H](OC(=O)N2CCCC2C)[C@H](C)[C@@H](O[C@@H]2O[C@H](C)C[C@H](N(C)C)[C@H]2O)[C@](C)(OC)C[C@@H](C)C(=O)[C@H](C)[C@H]2N(CC3CN(Cc4cccc5cccnc45)C3)C(=O)O[C@]12C (stereo partly drawn) [Example 5.04] | <0.06 µg/mL | <0.06 µg/mL | <0.06 µg/mL | 1 µg/mL (≈ 1.07 µM) | 4 µg/mL (≈ 4.27 µM) |  |  |  |  | 
18 | CCC1OC(=O)C(C)C(=O)C(C)C(OC2OC(C)CC(N(C)C)C2O)C(C)(OC)CC(C)C(=O)C(C)C2N(CC3CCN(Cc4c[nH]nn4)CC3)C(=O)OC12C (stereo not drawn) [15.10] |  |  |  |  |  | >64.00 µg/mL | 8 µg/mL (≈ 10.1 µM) | <0.06 µg/mL | 4 µg/mL (≈ 5.06 µM) | >64.00 µg/mL
19 | CCC1OC(=O)C(C)C(=O)C(C)C(OC2OC(C)CC(N(C)C)C2O)C(C)(OC)CC(C)C(=O)C(C)C2N(C3CN(S(=O)(=O)c4ccccc4C#N)C3)C(=O)OC12C (stereo not drawn) [Example 3.18, 3-descladinosyl-11,12-dideoxy-6-O-methyl-3-oxo-12,11-(oxycarbonyl-(1-(2-cyanobenzenesulfonyl)-azetidin-3-yl)-imino)-erythromycin A] | 1 µg/mL (≈ 1.2 µM) | <0.06 µg/mL | <0.06 µg/mL | 0.12 µg/mL (≈ 0.144 µM) | 2 µg/mL (≈ 2.4 µM) |  |  |  |  | 
20 | CCC1OC(=O)C(C)C(=O)C(C)C(OC2OC(C)CC(N(C)C)C2O)C(C)(OC)CC(C)C(=O)C(C)C2N(CC3CCN(Cc4ccc5cccc(O)c5n4)C3)C(=O)OC12C (stereo not drawn) [13.04] |  |  |  |  |  | 1 µg/mL (≈ 1.17 µM) | 0.25 µg/mL (≈ 0.293 µM) | <0.06 µg/mL | 1 µg/mL (≈ 1.17 µM) | 64 µg/mL (≈ 75 µM)
21 | CCC1OC(=O)C(C)C(=O)C(C)C(OC2OC(C)CC(N(C)C)C2O)C(C)(OC)CC(C)C(=O)C(C)C2N(CC3CN(Cc4ccc5cnccn45)C3)C(=O)OC12C (stereo not drawn) [4.24] | 0.5 µg/mL (≈ 0.616 µM) | <0.06 µg/mL | <0.06 µg/mL | 0.5 µg/mL (≈ 0.616 µM) | 64 µg/mL (≈ 78.8 µM) |  |  |  |  | 
